# Active and inactive are the calls of the source. The rule behind the calls is not given here.
# How the values were obtained:
# [1] = test system: OVCAR-3; assay: Growth inhibition of human OVCAR3 cells at 10 uM by NCI-60 cell inhibition assay; assay type: functional; conditions: read-out: GI
# [2] = test system: OVCAR-4; assay: Growth inhibition of human OVCAR4 cells at 10 uM by NCI-60 cell inhibition assay; assay type: functional; conditions: read-out: GI
# [3] = test system: IGROV-1; assay: Growth inhibition of human IGROV1 cells at 10 uM by NCI-60 cell inhibition assay; assay type: functional; conditions: read-out: GI
# [4] = test system: UACC-257; assay: Growth inhibition of human UACC257 cells at 10 uM by NCI-60 cell inhibition assay; assay type: functional; conditions: read-out: GI
# [5] = test system: SK-MEL-5; assay: Growth inhibition of human SK-MEL-5 cells at 10 uM by NCI-60 cell inhibition assay; assay type: functional; conditions: read-out: GI
# [6] = test system: SK-MEL-28; assay: Growth inhibition of human SK-MEL-28 cells at 10 uM by NCI-60 cell inhibition assay; assay type: functional; conditions: read-out: GI
# [7] = test system: SK-MEL-2; assay: Growth inhibition of human SK-MEL-2 cells at 10 uM by NCI-60 cell inhibition assay; assay type: functional; conditions: read-out: GI
# [8] = test system: MDA-MB-435; assay: Growth inhibition of human MDA-MB-435 cells at 10 uM by NCI-60 cell inhibition assay; assay type: functional; conditions: read-out: GI
# [9] = test system: Malme-3M; assay: Growth inhibition of human MALME-3M cells at 10 uM by NCI-60 cell inhibition assay; assay type: functional; conditions: read-out: GI
# [10] = test system: LOX IMVI; assay: Growth inhibition of human LOXIMVI cells at 10 uM by NCI-60 cell inhibition assay; assay type: functional; conditions: read-out: GI
# [11] = test system: U-251; assay: Growth inhibition of human U251 cells at 10 uM by NCI-60 cell inhibition assay; assay type: functional; conditions: read-out: GI
# [12] = test system: SNB-75; assay: Growth inhibition of human SNB75 cells at 10 uM by NCI-60 cell inhibition assay; assay type: functional; conditions: read-out: GI
# [13] = test system: SF-539; assay: Growth inhibition of human SF539 cells at 10 uM by NCI-60 cell inhibition assay; assay type: functional; conditions: read-out: GI
# [14] = test system: SNB-19; assay: Growth inhibition of human SNB19 cells at 10 uM by NCI-60 cell inhibition assay; assay type: functional; conditions: read-out: GI
# [15] = test system: SF-268; assay: Growth inhibition of human SF268 cells at 10 uM by NCI-60 cell inhibition assay; assay type: functional; conditions: read-out: GI
# [16] = test system: KM12; assay: Growth inhibition of human KM12 cells at 10 uM by NCI-60 cell inhibition assay; assay type: functional; conditions: read-out: GI
# [17] = test system: SW-620; assay: Growth inhibition of human SW620 cells at 10 uM by NCI-60 cell inhibition assay; assay type: functional; conditions: read-out: GI
# [18] = test system: HCT-15; assay: Growth inhibition of human HCT15 cells at 10 uM by NCI-60 cell inhibition assay; assay type: functional; conditions: read-out: GI
# [19] = test system: HT-29; assay: Growth inhibition of human HT-29 cells at 10 uM by NCI-60 cell inhibition assay; assay type: functional; conditions: read-out: GI
# [20] = test system: COLO 205; assay: Growth inhibition of human COLO205 cells at 10 uM by NCI-60 cell inhibition assay; assay type: functional; conditions: read-out: GI
# [21] = test system: HCC 2998; assay: Growth inhibition of human HCC2998 cells at 10 uM by NCI-60 cell inhibition assay; assay type: functional; conditions: read-out: GI
# [22] = test system: NCI-H522; assay: Growth inhibition of human NCI-H522 cells at 10 uM by NCI-60 cell inhibition assay; assay type: functional; conditions: read-out: GI
# [23] = test system: NCI-H460; assay: Growth inhibition of human NCI-H460 cells at 10 uM by NCI-60 cell inhibition assay; assay type: functional; conditions: read-out: GI
# [24] = test system: NCI-H226; assay: Growth inhibition of human NCI-H226 cells at 10 uM by NCI-60 cell inhibition assay; assay type: functional; conditions: read-out: GI
# [25] = test system: HOP-92; assay: Growth inhibition of human HOP92 cells at 10 uM by NCI-60 cell inhibition assay; assay type: functional; conditions: read-out: GI
# [26] = test system: A549; assay: Growth inhibition of human A549/ATCC cells at 10 uM by NCI-60 cell inhibition assay; assay type: functional; conditions: read-out: GI
# [27] = test system: EKVX; assay: Growth inhibition of human EKVX cells at 10 uM by NCI-60 cell inhibition assay; assay type: functional; conditions: read-out: GI
# [28] = test system: SR; assay: Growth inhibition of human SR cells at 10 uM by NCI-60 cell inhibition assay; assay type: functional; conditions: read-out: GI
# [29] = Growth inhibition of human […] cells at 10 uM by NCI-60 cell inhibition assay; assay type: functional; conditions: read-out: GI
# [30] = test system: MOLT-4; assay: Growth inhibition of human MOLT4 cells at 10 uM by NCI-60 cell inhibition assay; assay type: functional; conditions: read-out: GI
# [31] = test system: HL-60(TB); assay: Growth inhibition of human HL-60(TB) cells at 10 uM by NCI-60 cell inhibition assay; assay type: functional; conditions: read-out: GI
# [32] = test system: K562; assay: Growth inhibition of human K562 cells at 10 uM by NCI-60 cell inhibition assay; assay type: functional; conditions: read-out: GI
# [33] = test system: CCRF-CEM; assay: Growth inhibition of human CCRF-CEM cells at 10 uM by NCI-60 cell inhibition assay; assay type: functional; conditions: read-out: GI
# [34] = Stability in cell culture medium without serum assessed as compound recovery after 72 hrs; assay type: physicochemical; conditions: read-out: Stability
# [35] = test system: U-373MG ATCC; assay: Inhibition of eIF2 activity in human U373 cells at 0.5 uM after 4 hrs by Western blotting method; assay type: functional, cell-based
# [36] = test system: Hs 683; assay: Inhibition of eIF2 activity in human Hs683 cells at 0.5 uM after 4 hrs by Western blotting method; assay type: functional, cell-based
# [37] = species: Mus musculus; assay: Toxicity in mouse assessed as drug tolerance; assay type: organism-based; conditions: in vivo
# [38] = test system: T47D; assay: Growth inhibition of human T47D cells at 10 uM by NCI-60 cell inhibition assay; assay type: functional; conditions: read-out: GI
# [39] = test system: BT-549; assay: Growth inhibition of human BT549 cells at 10 uM by NCI-60 cell inhibition assay; assay type: functional; conditions: read-out: GI
# [40] = test system: MDA-MB-231; assay: Growth inhibition of human MDA-MB-231 cells at 10 uM by NCI-60 cell inhibition assay; assay type: functional; conditions: read-out: GI
# [41] = test system: MCF7; assay: Growth inhibition of human MCF7 cells at 10 uM by NCI-60 cell inhibition assay; assay type: functional; conditions: read-out: GI
# [42] = test system: DU-145; assay: Growth inhibition of human DU145 cells at 10 uM by NCI-60 cell inhibition assay; assay type: functional; conditions: read-out: GI
# [43] = test system: TK-10; assay: Growth inhibition of human TK10 cells at 10 uM by NCI-60 cell inhibition assay; assay type: functional; conditions: read-out: GI
# [44] = test system: SN12C; assay: Growth inhibition of human SN12C cells at 10 uM by NCI-60 cell inhibition assay; assay type: functional; conditions: read-out: GI
# [45] = test system: CAKI-1; assay: Growth inhibition of human Caki1 cells at 10 uM by NCI-60 cell inhibition assay; assay type: functional; conditions: read-out: GI
# [46] = test system: ACHN; assay: Growth inhibition of human ACHN cells at 10 uM by NCI-60 cell inhibition assay; assay type: functional; conditions: read-out: GI
# [47] = test system: A498; assay: Growth inhibition of human A498 cells at 10 uM by NCI-60 cell inhibition assay; assay type: functional; conditions: read-out: GI
# [48] = test system: 786-0; assay: Growth inhibition of human 786-0 cells at 10 uM by NCI-60 cell inhibition assay; assay type: functional; conditions: read-out: GI
# [49] = test system: SK-OV-3; assay: Growth inhibition of human SKOV3 cells at 10 uM by NCI-60 cell inhibition assay; assay type: functional; conditions: read-out: GI
# [50] = test system: Hs 683; assay: cells; conditions: Homo sapiens, Hs 683, 72 h
# [51] = test system: T98G; assay: cells; conditions: Homo sapiens, 72 h
# [52] = cells; conditions: Homo sapiens, U373 MG, 72 h
structure (smiles),measurement,setting,value
Cc1c2c(cc[n+]1Cc1ccccc1)c1ccc(OCc3ccccc3)cc1n2Cc1ccccc1.[Br-],inhibition of growth at 10 µM,[1],-97.1%
same,inhibition of growth at 10 µM,[2],-3.79%
same,inhibition of growth at 10 µM,[3],-65.1%
same,inhibition of growth at 10 µM,[4],-0.65%
same,inhibition of growth at 10 µM,[5],-99.4%
same,inhibition of growth at 10 µM,[6],-56.5%
same,inhibition of growth at 10 µM,[7],-36%
same,inhibition of growth at 10 µM,[8],-93.8%
same,inhibition of growth at 10 µM,[9],-73.6%
same,inhibition of growth at 10 µM,[10],-93.2%
same,inhibition of growth at 10 µM,[11],-80.2%
same,inhibition of growth at 10 µM,[12],-18%
same,inhibition of growth at 10 µM,[13],-5.52%
same,inhibition of growth at 10 µM,[14],-13.3%
same,inhibition of growth at 10 µM,[15],-90.4%
same,inhibition of growth at 10 µM,[16],-98.4%
same,inhibition of growth at 10 µM,[17],-88.1%
same,inhibition of growth at 10 µM,[18],39.2%
same,inhibition of growth at 10 µM,[19],-48.6%
same,inhibition of growth at 10 µM,[20],-82.3%
same,inhibition of growth at 10 µM,[21],-81.8%
same,inhibition of growth at 10 µM,[22],-47.1%
same,inhibition of growth at 10 µM,[23],-87.5%
same,inhibition of growth at 10 µM,[24],-12%
same,inhibition of growth at 10 µM,[25],-67.8%
same,inhibition of growth at 10 µM,[26],4.01%
same,inhibition of growth at 10 µM,[27],-28.8%
same,inhibition of growth at 10 µM,[28],-52.5%
same,inhibition of growth at 10 µM,[29],-21.6%
same,inhibition of growth at 10 µM,[30],-51%
same,inhibition of growth at 10 µM,[31],-54.1%
same,inhibition of growth at 10 µM,[32],-25%
same,inhibition of growth at 10 µM,[33],-16.2%
same,remaining at 72 h,[34],> 95%
same,inhibition,[35],Active
same,inhibition,[36],Active
same,Activity,[37],Toxic
same,inhibition of growth at 10 µM,[38],-4.02%
same,inhibition of growth at 10 µM,[39],-90.4%
same,inhibition of growth at 10 µM,[40],-85.1%
same,inhibition of growth at 10 µM,[41],-23.1%
same,inhibition of growth at 10 µM,[42],-33.6%
same,inhibition of growth at 10 µM,[43],11.8%
same,inhibition of growth at 10 µM,[44],-86.6%
same,inhibition of growth at 10 µM,[45],-5.76%
same,inhibition of growth at 10 µM,[46],8.54%
same,inhibition of growth at 10 µM,[47],-34.5%
same,inhibition of growth at 10 µM,[48],-87.4%
same,inhibition of growth at 10 µM,[49],7.67%
same,IC50,[50],500 nM
same,IC50,[51],480 nM
same,IC50,[52],440 nM
